One may read the IC50 as the midpoint of a concentration-inhibition curve. A low value points to greater potency in that assay.

Molecules are shown by their SMILES.

We go through 10 compounds from patent publication EP1038880B1, “Androstanes and pregnanes for allosteric modulation of GABA receptor” (priority 1994, dated 1995).

The target in one experiment is GR complex. Briefly: [35S]TBPS binding assay (inhibition of [35S]TBPS binding, cerebral cortex P2 homogenate). Also noted: species or system rat. To be noted: for IC50: 2 nM [35S]TBPS, rat cerebral cortex P2 homogenate; for IMAX: maximum inhibition of [35S]TBPS binding. In short, it runs like this:
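Rat (male Sprague-Dawley) cortical P2 homogenate (0.5 mg protein) in 50 mM Na/K phosphate pH 7.4, 200 mM NaCl, incubated with 2 nM [35S]TBPS plus steroid test compounds (DMSO) in presence of GABA plus (+)bicuculline, 25°C, 90 min. Filtration, scintillation counting; nonspecific binding defined with […].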

In experiment [1] the test system is metrazol induced convulsions. Briefly: animal or person. It counts as in vivo, mice. To be noted: Mus musculus, 10 min; IP, 10 mg/kg, 10 minutes prior to metrazol (85 mg/kg); read-out: % Protected. As to the method:
Experiments were also performed to determine the physiological relevance of neuroactive steroid and GABA receptor interactions by assessing the ability of the compounds of and used in the invention to prevent metrazol induced convulsions in mice. Mice were injected with various doses of the test compounds of the invention, 10 minutes prior to the injection of metrazol. The time to onset of myoclomis (presence of forelimb clonic activity) induced by metrazol was determined by observing each mouse for a period of 30 minutes. […] Table 6: Antimetrazol Activity of Neuroactive Steroids in Mice
The anticonvulsant tests are similar to that described above. […] The number of animals with tonic and/or clonic convulsions was recorded. In the maximal electroshock test, 50 mA of current at 60 Hz was delivered through corneal electrodes for 200 msec to induce tonic seizure. The ability of compounds to abolish the tonic component was defined as the endpoint. General CNS depression potential was determined by a rotorod test 10 minutes after the injection of compounds where the number of mice staying on a rotating (6 rpm) rod for 1 minute in one of the three trials was determined. […] Table 7. Anticonvulsant Activity of Exemplified Neuroactive Steroids and those of Selected Clinically Useful Anticonvulsants in Mice

For experiment [2], the system named is N.I.H. Swiss-Webster mice. In words: Elevated plus-maze. To be noted: Mus musculus, ip, read-out: % Control. It counts as in vivo. An excerpt:
The theoretical basis for the elevated plus-maze test is similar to that of the light/dark transition test. […] The apparatus consists of two open-arms and two enclosed-arms. The elevated plus-maze test allows for two measures of anxiety, the number of entries into the open-arms and the time spent on the open-arms, both expressed as a percentage of the total number of entries and time spent in/on both the open-arms and enclosed-arms.
Male N.LH. Swiss-Webster mice (Harlan, Indianapolis, IN) weighing 15-20 g were housed four per cage in polyethylene cages with sawdust bedding. The colony mom was environmentally controlled (22°C) with a 12^- hr light/dark cycle (0600-1800 hr). Food and water were available ad libitum, except during testing. The experiments were run from 0700-1500 hr and groups were counterbalance for time of day effects. Mice were only administered drug or vehicle once.
The apparatus included two open arms perpendicular to two enclosed arms elevated 50 cm from the floor. Each arm was 50 cm long and the walls of the enclosed arms were 40 cm tall. The maze was made completely of black plexiglass. Incandescent 200 W light bulbs were above each of the open arms to produce a strong contrast between the open arms and the enclosed arms.
Ten minutes after an injection, the N.I.H. Swiss-Webster mice were placed in the center of the plus-maze facing an open arm. During the 5 min test period, the number of entries onto the open arms and the enclosed arms, and the time spent in the open arms and enclosed arms were measured. All four paws had to be within an arm for the dependent variable to be measured. Therefore, the time spent in the center of the maze is not counted, so the total time spent in the open arms and the enclosed arms may not equal 5 min.

On GR complex, `C#C[C@@]1(O)CC[C@@]2(C)[C@H](CC[C@@H]3[C@@H]2CC[C@]2(C)[C@@H](C(=O)Cn4cccn4)CC[C@@H]32)C1` [3β-ethynyl-3α-hydroxy-21-(1'-pyrazolyl)-5β-pregnan-20-one] returned an IC50 of 106 nM and an IMAX of 99%. The responders at 10 mg/kg in experiment [1] stood at 62.5%. Besides, the response vs control in vivo at 10 mg/kg in experiment [2] came out at 180%.

With `COc1ccccc1C#C[C@@]1(O)CC[C@@]2(C)[C@H](CC[C@@H]3[C@@H]2CC[C@]2(C)[C@@H](C(C)=O)CC[C@@H]32)C1` [3α-hydroxy-3β-(2'-methoxyphenyl)ethynyl-5β-pregnan-20-one], on GR complex, the IC50 amounted to 238 nM and the IMAX came to 99%. Further, the responders at 10 mg/kg in experiment [1] was 12.5%. Further, the response vs control in vivo at 10 mg/kg in experiment [2] came out at 152%.

On GR complex, `C[C@@]1(O)CC[C@@]2(C)[C@@H](CC[C@@H]3[C@@H]2CC[C@]2(C)[C@@H](C(=O)Cn4ccnc4)CC[C@@H]32)C1` [3α-hydroxy-21-(1'-imidazolyl)-3β-methyl-5α-pregnan-20-one] came in with an IC50 of 97 nM and an IMAX of 95%. For the same compound, the responders at 10 mg/kg in experiment [1] was 75%. In addition, the response vs control in vivo at 10 mg/kg in experiment [2] came out at 144%.

At GR complex, `C#C[C@@]1(O)CC[C@@]2(C)[C@H](CC[C@@H]3[C@@H]2CC[C@]2(C)[C@@H](C(=O)Cn4ccnc4)CC[C@@H]32)C1` [3β-ethynyl-3α-hydroxy-21-(1'-imidazolyl)-5β-pregnan-20-one] had an IC50 of 80 nM and an IMAX of 103%. In addition, in experiment [1], the responders at 10 mg/kg worked out at 50%. In experiment [2], the response vs control in vivo at 10 mg/kg worked out at 179%.

At GR complex, `C[C@@]1(O)CC[C@@]2(C)[C@@H](CC[C@@H]3[C@@H]2CC[C@]2(C)[C@@H](C(=O)Cn4cccn4)CC[C@@H]32)C1` [3α-hydroxy-21-(1'-pyrazolyl)-3β-methyl-5α-pregnan-20-one] showed an IC50 of 115 nM and an IMAX of 98%. Besides, in experiment [1], the responders at 10 mg/kg is 87.5%. In experiment [2], the response vs control in vivo at 10 mg/kg worked out at 154%.

As for `CC(=O)[C@H]1CC[C@H]2[C@@H]3CC[C@@H]4C[C@@](O)(C#Cc5cccs5)CC[C@]4(C)[C@H]3CC[C@]12C` [3α-hydroxy-3β-(2'-thienyl)ethynyl-5β-pregnan-20-one], at GR complex, the 50% inhibitory concentration (IC50) came to 59 nM and the IMAX was determined as 100%. Besides, in experiment [1], the responders at 10 mg/kg came to 37.5%. Moreover, in experiment [2], the response vs control in vivo at 10 mg/kg turned out to be 148%.

As for `C[C@]12CC[C@@H](O)C[C@H]1CC[C@@H]1[C@@H]2CC[C@]2(C)[C@@H](C(=O)Cn3cccn3)CC[C@@H]12` [3α-hydroxy-21-(pyrazol-1-yl)-5β-pregnan 20-one], on GR complex, the IC50 was determined as 121 nM and the IMAX is listed as 67%. For the same compound, the responders at 10 mg/kg in experiment [1] came to 62.5%. For the same compound, in experiment [2], the response vs control in vivo at 10 mg/kg came out at 129%.

`C#CCOCC#C[C@@]1(O)CC[C@@]2(C)[C@H](CC[C@@H]3[C@@H]2CC[C@]2(C)[C@@H](C(C)=O)CC[C@@H]32)C1` [3α-hydroxy-3β-[3-(2'-propynyloxy)-1-propynyl]-5β-pregnan-20-one]: on GR complex, the IC50 came out at 28 nM and the IMAX stood at 105%. Further, the responders at 10 mg/kg in experiment [1] is 50%. Besides, the response vs control in vivo at 10 mg/kg in experiment [2] is 178%.

At GR complex, `C[C@@]1(O)CC[C@@]2(C)[C@@H](CC[C@@H]3[C@@H]2CC[C@]2(C)[C@@H](C(=O)Cn4cncn4)CC[C@@H]32)C1` [3α-Hydroxy-3β-methyl-21-(1',2',4'-triazolyl)-5α-pregnan-20-one] showed an IC50 of 125 nM and an IMAX of 105%. Further, the responders at 10 mg/kg in experiment [1] is 87.5%. The response vs control in vivo at 10 mg/kg in experiment [2] turned out to be 153%.

On GR complex, `CC(=O)[C@H]1CC[C@H]2[C@@H]3CC[C@@H]4C[C@@](O)(C#Cc5ccc(-c6ccccc6)cc5)CC[C@]4(C)[C@H]3CC[C@]12C` [3β-(4'-biphenylethynyl)-3α-hydroxy-5β-pregnan-20-one] came in with an IC50 of 43 nM and an IMAX of 83%. Moreover, in experiment [1], the responders at 10 mg/kg came out at 0%. Besides, in experiment [2], the response vs control in vivo at 10 mg/kg was found to be 111%.
